# Assay results as given in patent US12274732B2, “Anti-pathogen composition and methods of use thereof” (Tenfold Technologies, LLC, priority 2017, dated 2025).
# Like-named read-outs stand apart in the source and are kept apart here. Positions of bridges follow the written chain, without caps; N, C: chain ends. Non-standard residues stand in square brackets, D forms with d. Residues, ends and D or L forms follow the SMILES beside them. ξ: configuration not given here. *: point of attachment. Pentadecanoyl(3ξ-OH,15-Gua) = N=C(N)NCCCCCCCCCCCCC(O)CC(=O)*; d(aThr) = C[C@@H](O)[C@@H](N)C(=O)O
# Assays:
# Format in all cases: cell-based
# Candida albicans = assay: In vitro antimicrobial activity against Candida albicans; details: for IC50: Candida albicans; for C. albicans IC50: Table 5, extracts tested at 8-200 μg/mL
# Description: (§1) Fifty organic extracts were prepared from 25 whole broth of four microbial strains (MS1479, MS2379, MS2820, and MS2414), which were fermented in different media for the antimicrobial testing. Note each whole broth culture generated one n-butanol extract from cultural supernatant and one methanol extract from cell pellets.
# (§2) The antimicrobial activities of the 50 organic extracts were studied against three fungal pathogens—Candida albicans, Aspergillus fumigatus, and Cryptococcus neoformans—and five bacterial strains-Methicillin-resistant Staphylococcus aureus (MIRSA), Escherichia coli, Pseudomonas aeruginosa, Klebsiella pneumoniae, and Vancomycin-resistant Enterococcus faecium (VRE) (FIG. 2). The test concentrations for all extracts were in the range of 8-200 μg/mL (Table 3).
# (§3) The antimicrobial activities of identified fusaricidins were in an in vitro study against several clinically relevant microbes. […] For the in-vitro assays against bacteria, fusaricidins were tested against methicillin-resistant Staphylococcus aureus, vancomycin-resistant Enterococcus faecium, Escherichia coli, and Pseudomonas aeruginosa using four antibacterial drugs methicillin, vancomycin, cefotaxime, and meropenem as controls. […] Fusaricidins were also tested against fungal pathogens Cryptococcus neoformans, Candida albicans, and Aspergillus fumigatus and compared with two antifungal drugs, fluconazole and amphotericin B (Table 13). Moreover, the anti-parasitic activity was also tested against L. donovani and T. brucei (Table 14).
# Cryptococcus neoformans = assay: In vitro antimicrobial activity against Cryptococcus neoformans; details: for C. neoformans IC50: Table 5, extracts tested at 8-200 μg/mL
# Description: as §1, §2
# The potent activities against the fungal pathogen C. neoformans and the gram-positive bacteria S. aureus, MRSA, and M. intracellulare were also shown in the crude extracts (FIG. 7).
# as §3
# Pseudomonas aeruginosa = assay: In vitro antimicrobial activity against Pseudomonas aeruginosa
# Description: as §1, §2, §3
# Aspergillus fumigatus = assay: In vitro antimicrobial activity against Aspergillus fumigatus; details: for A. fumigatus IC50: Table 5, extracts tested at 8-200 μg/mL
# Description: as §1, §2, §3
# [1] = tested on: Vancomycin-resistant Enterococcus faecium (VRE); assay: In vitro antimicrobial activity against VRE; details: for VRE IC50: Table 5, extracts tested at 8-200 μg/mL
# Description: as §1, §2, §3
# Escherichia coli = assay: In vitro antimicrobial activity against Escherichia coli
# Description: as §1, §2, §3
# [2] = tested on: Methicillin-resistant Staphylococcus aureus (MRSA); assay: In vitro antimicrobial activity against MRSA; details: for MRS IC50: Table 5, extracts tested at 8-200 μg/mL
# Description: as §1, §2, §3
# Klebsiella pneumoniae = assay: In vitro antimicrobial activity against Klebsiella pneumoniae; details: Klebsiella pneumoniae; test conc. 200-8 μg/mL (extracts), 100-4 or 10-0.4 μg/mL (drugs); read-out: K pneumoniae IC50
# Description: as §1, §2
# [3] = test conc. 200-8 μg/mL (extracts), 100-4 or 10-0.4 μg/mL (drugs), read-out: C. albicans IC50
# [4] = Cryptococcus neoformans, test conc. 200-8 μg/mL (extracts), 100-4 or 10-0.4 μg/mL (drugs), read-out: C. neoformans IC50
# [5] = Pseudomonas aeruginosa, test conc. 200-8 μg/mL (extracts), 100-4 or 10-0.4 μg/mL (drugs), read-out: P. aeruginosa IC50
# [6] = Aspergillus fumigatus, test conc. 200-8 μg/mL (extracts), 100-4 or 10-0.4 μg/mL (drugs), read-out: A. fumigatus IC50
# [7] = test conc. 200-8 μg/mL (extracts), 100-4 or 10-0.4 μg/mL (drugs), read-out: VRE IC50
# [8] = Escherichia coli, test conc. 200-8 μg/mL (extracts), 100-4 or 10-0.4 μg/mL (drugs), read-out: E. coli IC50
# [9] = Staphylococcus aureus, MRSA, test conc. 200-8 μg/mL (extracts), 100-4 or 10-0.4 μg/mL (drugs), read-out: MRS IC50
# [10] = Table 12, highest test conc. fusaricidins 20, controls 100 μg/mL
# [11] = Table 12, lowest concentration that allows no detectable growth
# [12] = Table 13, Pseudomonas aeruginosa ATCC 2108
# [13] = Table 13, Vancomycin-resistant Enterococcus faecium ATCC 700221
# [14] = Table 13, Escherichia coli ATCC 2452
# [15] = Table 13, Methicillin-resistant Staphylococcus aureus ATCC 1708
Compound,IC50 (Candida albicans; [3]),C. albicans IC50 (Candida albicans),IC50 (Cryptococcus neoformans; [4]),C. neoformans IC50 (Cryptococcus neoformans),IC50 (Pseudomonas aeruginosa; [5]),IC50 (Aspergillus fumigatus; [6]),A. fumigatus IC50 (Aspergillus fumigatus),VRE IC50 [1],"IC50 [1, 7]",IC50 (Escherichia coli; [8]),"IC50 [2, 9]",IC50 (Klebsiella pneumoniae),MRS IC50 [2],other results
CO/N=C(\C(=O)N[C@@H]1C(=O)N2C(C(=O)O)=C(COC(C)=O)CS[C@H]12)c1csc(N)n1 [Cefotaxime],> 100 µg/mL,>100 µg/mL,> 100 µg/mL,>100 µg/mL,11.8 µg/mL,> 100 µg/mL,>100 µg/mL,>100 µg/mL,> 100 µg/mL,80.2 µg/mL,14.8 µg/mL,> 100 µg/mL,,"IC50 (Pseudomonas aeruginosa; ATCC2108, Table 13, Pseudomonas aeruginosa ATCC 2108, read-out: P. aeruginosa IC50 (50% growth inhibitory concentration)): 5.3 µg/mL; MIC (Pseudomonas aeruginosa; ATCC2108, Table 13, Pseudomonas aeruginosa ATCC 2108, read-out: P. aeruginosa MIC (minimum inhibitory concentration)): 25 µg/mL; IC50 ([1]; ATCC 700221 / VRE, Table 13, Vancomycin-resistant Enterococcus faecium ATCC 700221, read-out: VRE IC50 (50% growth inhibitory concentration)): > 100 µg/mL; MIC ([1]; ATCC 700221 / VRE, Table 13, Vancomycin-resistant Enterococcus faecium ATCC 700221, read-out: VRE MIC (minimum inhibitory concentration)): > 100 µg/mL; IC50 (Escherichia coli; ATCC2452, Table 13, Escherichia coli ATCC 2452, read-out: E. coli IC50 (50% growth inhibitory concentration)): > 100 µg/mL; MIC (Escherichia coli; ATCC2452, Table 13, Escherichia coli ATCC 2452, read-out: E. coli MIC (minimum inhibitory concentration)): > 100 µg/mL; IC50 ([2]; ATCC 1708 / MRSA, Table 13, Methicillin-resistant Staphylococcus aureus ATCC 1708, read-out: MRSA IC50 (50% growth inhibitory concentration)): 15.6 µg/mL; MIC ([2]; ATCC 1708 / MRSA, Table 13, Methicillin-resistant Staphylococcus aureus ATCC 1708, read-out: MRSA MIC (minimum inhibitory concentration)): 25 µg/mL"
O=C(O)c1cn(C2CC2)c2cc(N3CCNCC3)c(F)cc2c1=O [Ciprofloxacin],,,> 10 µg/mL,>10 µg/mL,0.81 µg/mL,,,>10 µg/mL,> 10 µg/mL,< 0.01 µg/mL,> 10 µg/mL,> 10 µg/mL,>10 µg/mL,
OC(Cn1cncn1)(Cn1cncn1)c1ccc(F)cc1F [Fluconazol],,,,,,,,,,,,,,"IC50 (Candida albicans; Table 12, highest test conc. fusaricidins 20, controls 100 μg/mL, read-out: C. albicans IC50 (50% growth inhibitory concentration)): 1 µg/mL; IC50 (Cryptococcus neoformans; Cryptococcus neoformans, Table 12, highest test conc. fusaricidins 20, controls 100 μg/mL, read-out: C. neoformans IC50 (50% growth inhibitory concentration)): 2.5 µg/mL; MIC (Cryptococcus neoformans; Cryptococcus neoformans, Table 12, lowest concentration that allows no detectable growth, read-out: C. neoformans MIC (minimum inhibitory concentration)): 6.3 µg/mL; IC50 (Aspergillus fumigatus; Aspergillus fumigatus, Table 12, highest test conc. fusaricidins 20, controls 100 μg/mL, read-out: A. fumigatus IC50 (50% growth inhibitory concentration)): > 100 µg/mL; MIC (Aspergillus fumigatus; Aspergillus fumigatus, Table 12, lowest concentration that allows no detectable growth, read-out: A. fumigatus MIC (minimum inhibitory concentration)): > 100 µg/mL"
OC(Cn1cncn1)(Cn1cncn1)c1ccc(F)cc1F [Fluconazole],< 0.1 µg/mL,<0.1 µg/mL,2.2 µg/mL,,> 100 µg/mL,> 100 µg/mL,>100 µg/mL,>100 µg/mL,> 100 µg/mL,> 100 µg/mL,> 100 µg/mL,> 100 µg/mL,>100 µg/mL,
"CC(C)[C@@H]1NC(=O)[C@@H](C(C)C)NC(=O)[C@@H](NC(=O)CC(O)CCCCCCCCCCCCN=C(N)N)[C@@H](C)OC(=O)[C@@H](C)NC(=O)[C@@H](CC(N)=O)NC(=O)[C@@H]([C@@H](C)O)NC1=O (stereo partly drawn) [Fusaricidin A (RRR-8-32Q)] ({Pentadecanoyl(3ξ-OH,15-Gua)}-T[dV]V[d(aThr)][dN][dA]; ester 1-C)",,,,,,,,,,,,,,"C. albicans IC50 (50% growth inhibitory concentration) (Candida albicans; [10]): 3.5 µg/mL; C. albicans MIC (minimum inhibitory concentration) (Candida albicans; [11]): 5.0 µg/mL; C. neoformans IC50 (50% growth inhibitory concentration) (Cryptococcus neoformans; [10]): 1.2 µg/mL; C. neoformans MIC (minimum inhibitory concentration) (Cryptococcus neoformans; [11]): 2.5 µg/mL; P. aeruginosa IC50 (50% growth inhibitory concentration) (Pseudomonas aeruginosa; [12]): >20/>20 μg/mL; P. aeruginosa MIC (minimum inhibitory concentration) (Pseudomonas aeruginosa; [12]): >20/>20 μg/mL; A. fumigatus IC50 (50% growth inhibitory concentration) (Aspergillus fumigatus; [10]): 18.5 µg/mL; A. fumigatus MIC (minimum inhibitory concentration) (Aspergillus fumigatus; [11]): > 20 µg/mL; VRE IC50 (50% growth inhibitory concentration) [1, 13]: 3.7 µg/mL; VRE MIC (minimum inhibitory concentration) [1, 13]: 5.0 µg/mL; E. coli IC50 (50% growth inhibitory concentration) (Escherichia coli; [14]): >20/>20 μg/mL; E. coli MIC (minimum inhibitory concentration) (Escherichia coli; [14]): >20/>20 μg/mL; MRSA IC50 (50% growth inhibitory concentration) [2, 15]: 2.1 µg/mL; MRSA MIC (minimum inhibitory concentration) [2, 15]: 2.5 µg/mL"
